Experimental data reported in US5179091A, “Chalcones” (Adir et Compagnie, priority 1990, dated 1993).

Legend:
[1] = target: T1, lipoxygenase (Homo sapiens, UniProt P09917); assay: Inhibition of lipoxygenase activity, LTB4 measured by radioimmunoassay; assay type: cell-based; conditions: concentration of 10^-5 M, washed human polynuclear cells activated by calcium; read-out: inhibition of lipoxygenase action (LTB4 produced)
T1 construct: endogenous in cells
T1 sequence (P09917 1-674): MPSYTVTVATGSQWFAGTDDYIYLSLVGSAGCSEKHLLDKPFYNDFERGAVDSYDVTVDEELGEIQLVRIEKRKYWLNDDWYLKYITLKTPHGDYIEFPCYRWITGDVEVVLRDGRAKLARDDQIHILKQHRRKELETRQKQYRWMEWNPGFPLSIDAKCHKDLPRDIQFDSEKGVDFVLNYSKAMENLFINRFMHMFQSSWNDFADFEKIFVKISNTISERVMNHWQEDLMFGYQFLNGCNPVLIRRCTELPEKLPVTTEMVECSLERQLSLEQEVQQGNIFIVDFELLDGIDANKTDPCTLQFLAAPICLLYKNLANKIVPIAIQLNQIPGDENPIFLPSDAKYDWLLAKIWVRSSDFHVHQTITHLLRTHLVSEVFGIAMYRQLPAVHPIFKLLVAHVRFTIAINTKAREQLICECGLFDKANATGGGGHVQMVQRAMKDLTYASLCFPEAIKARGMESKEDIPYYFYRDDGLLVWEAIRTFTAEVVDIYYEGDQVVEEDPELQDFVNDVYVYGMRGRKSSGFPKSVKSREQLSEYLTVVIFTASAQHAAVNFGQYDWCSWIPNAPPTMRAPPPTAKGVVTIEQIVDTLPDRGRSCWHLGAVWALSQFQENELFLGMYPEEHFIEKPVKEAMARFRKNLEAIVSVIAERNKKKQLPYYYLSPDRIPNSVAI
Description: The lipoxygenase activity is measured using washed human polynuclear cells, in the presence and absence of the claimed compounds after activation by calcium (A 23/87). The leukotriene B4 (LTB4) produced is measured by radioimmunoassay (Gresele, P. et al. Biochem. Biophys. Res. Comm. 1986, 137, 334-342).

[2] = system: rat brain homogenates; assay: Inhibition of lipid peroxidation induced by the Fe++/ascorbate system; assay type: biochemical; conditions: concentration of 10^-5 M, Fe++/ascorbate (10 μM/250 μM)
Description: A study of the capacity of the compounds of the invention to trap free OH. radicals was studied on rat brain homogenates on the other hand with respect to peroxidation induced by the Fe++/ascorbate (10 μM/250 μM) system. The rat brain homogenates are placed in the presence or absence of the test compounds for 60 minutes at 37° C. The intensity of lipid peroxidation in the presence and in the absence of the compounds of the invention is determined by the substances reacting with thiobarbituric acid, expressed in mmol of malondialdehyde, by a method derived from that of […], Biochem. Med. 1976, 15, 212-216). The methodology is identical, with the exception of the addition to the homogenate of the Fe++/ascorbate radical-inducing system.

[3] = Inhibition of formation of conjugated dienes formed by free-radical activity; assay type: biochemical; conditions: 10^-5 M concentration, linoleic acid emulsion, Fe2+/Fe3+ mixture
From the text: This methodology consists in generating free OH- radicals in an emulsion of linoleic acid, by means of a system consisting of an Fe^2+ /Fe^3+ mixture.

[4] = system: native LDL; assay: Level of LDL oxidation by Cu++, oxidation products assayed by FPLC; assay type: biochemical; conditions: relative to probucol (i=1)
Description: Under these conditions, free radicals are generated by Cu++ in a medium containing native LDL in the presence or absence of the test compounds. The reaction is stopped by adding 2,6-di-tert-butyl-4-methylphenol and EDTA to the reaction medium and the oxidation products are assayed by FPLC.
D being the height of the peak of fraction 27/28 of the chromatogram; the sum of the oxidized fractions 27/28 and 31/32 is equal to 100.

[5] = system: rat brain homogenates; assay: Inhibition of spontaneous lipid peroxidation (thiobarbituric acid reacting substances); assay type: biochemical; conditions: concentration of 10^-5 M, 60 minutes at 37° C.
Description: A study of the capacity of the compounds of the invention to trap free OH. radicals was studied on rat brain homogenates on the one hand with respect to the spontaneous peroxidation of lipids, The rat brain homogenates are placed in the presence or absence of the test compounds for 60 minutes at 37° C. The intensity of lipid peroxidation in the presence and in the absence of the compounds of the invention is determined by the substances reacting with thiobarbituric acid, expressed in mmol of malondialdehyde, by a method derived from that of […], Biochem. Med. 1976, 15, 212-216).

[6] = system: Human red cells; assay: AAPH-induced hemolysis; assay type: cell-based; conditions: Erythrocyte, 0.5 h, concentration of 10^-5 M, 30 minutes at 37° C.

`Cn1c(=O)oc2ccc(C(=O)C=Cc3cc(C(C)(C)C)c(O)c(C(C)(C)C)c3)cc21` [Example 1, 5-(3',5'-di-tert-butyl-4'-hydroxycinnamo-yl)-3-methylbenzoxazolinone] gave an inhibition at 10 µM [1] of ~80%.

With `Cn1c(=O)sc2cc(C(=O)C=Cc3cc(C(C)(C)C)c(O)c(C(C)(C)C)c3)ccc21` [Example 4, 6-(3',5'-di-tert-butyl-4'-hydroxycinnamoyl)-3-methylbenzothiazolinone] the “inhibition of induced peroxidation” value [2] was ~30%.

For `Cn1c(=O)oc2cc(C(=O)C=Cc3cc(C(C)(C)C)c(O)c(C(C)(C)C)c3)ccc21` [Example 5, 6-(3',5'-di-tert-butyl-4'-hydroxycinnamoyl)-3-methylbenzoxazolinone], the inhibition at 10 µM [1] was ~60%.

With `CC(C)(C)c1cc(C=CC(=O)c2ccc3[nH]c(=O)oc3c2)cc(C(C)(C)C)c1O` [Example 6, 6-(3',540-di-tert-butyl-4'-hydroxycinnamoyl)benzoxazolinone] the “inhibition of diene formation” value [3] was “approximately 75%”.

For `CC(C)(C)c1cc(C=CC(=O)c2ccc3c(c2)OCC(=O)N3)cc(C(C)(C)C)c1O` [Example 7, 7-(3',54- -di-tert-butyl-4'-hydroxycinnamoyl)-1,4-benzoxazin-3-one], the “inhibition of diene formation” value [3] was “approximately 75%”.

For `CC1C(=Cc2cc(C(C)(C)C)c(O)c(C(C)(C)C)c2)C(=O)c2cc3oc(=O)n(C)c3cc21` (stereo not drawn) [Example 27, 2,3-dihydro-3,5-dimethyl-6-(3',5'-di-tert-butyl-4'-hydroxybenzylidene)cyclopenta[f]benzoxazone-2,7-dione], the “LDL oxidation: oxidized fraction 27/28 of the chromatogram” value [4] was “oxidized fraction 27/28 disappears”.

For `CC1CC(=Cc2cc(C(C)(C)C)c(O)c(C(C)(C)C)c2)C(=O)c2cc3c(cc21)oc(=O)n3C` (stereo not drawn) [Example 28, 2,3-dihydro-3,8-dimethyl-6-(3',5'-di-tert-butyl-4'-hydroxybenzylidene)cyclohexa[f]benzoxazone-2,5-dione], the “LDL oxidation: oxidized fraction 27/28 of the chromatogram” value [4] was “oxidized fraction 27/28 disappears”.

For `CC1C(=Cc2cc(C(C)(C)C)c(O)c(C(C)(C)C)c2)C(=O)c2cc3c(cc21)oc(=O)n3C` (stereo not drawn) [Example 29, 2,3-dihydro-3,7-dimethyl-6-(3',5'-di-tert-butyl-4'-hydroxybenzylidene)cyclopenta[f]benzoxazole-2,5-dione], the “LDL oxidation: oxidized fraction 27/28 of the chromatogram” value [4] was “oxidized fraction 27/28 disappears”.

With `CC1C(=Cc2cc(C(C)(C)C)c(O)c(C(C)(C)C)c2)C(=O)c2cc3oc(=O)[nH]c3cc21` (stereo not drawn) [Example 33, 2,3-dihydro-5-methyl-6-(3',5'-di-tert-butyl-4'-hydroxybenzylidene)cyclopenta[f]benzoxa-zone-2,6-dione] the “inhibition of spontaneous peroxidation” value [5] was “approximately 50%”, the “inhibition of induced peroxidation” value [2] was ~50% and the “LDL oxidation: oxidized fraction 27/28 of the chromatogram” value [4] was “oxidized fraction 27/28 disappears”.

For `CC(C)(C)c1cc(C=C2C(=O)c3cc4oc(=O)[nH]c4cc3C2c2ccccc2)cc(C(C)(C)C)c1O` (stereo not drawn) [Example 35, 2,3-dihydro-5-phenyl-6-(3',5'-di-tert-butyl-4'-hydroxybenzylidene)cyclopenta[f]benzoxazole-2,7-dione], the “inhibition of spontaneous peroxidation” value [5] was “approximately 50%”, the “inhibition of induced peroxidation” value [2] was ~50% and the “LDL oxidation: oxidized fraction 27/28 of the chromatogram” value [4] was “oxidized fraction 27/28 disappears”. For the same compound, the inhibition at 10 µM [1] was ~60%.

In the case of `Cn1c(=O)oc2cc3c(cc21)C(c1ccccc1)C(=Cc1cc(C(C)(C)C)c(O)c(C(C)(C)C)c1)C3=O` (stereo not drawn) [Example 36, 2,3-dihydro-3-methyl-5-phenyl-6-(3',5'-di-tert-butyl-4'-hydroxybenzylidene)cyclopenta[f]benzoxazole-2,7-dione], the “inhibition of spontaneous peroxidation” value [5] is reported as “approximately 50%”, the “inhibition of induced peroxidation” value [2] is reported as ~50% and the “inhibition of diene formation” value [3] is reported as “approximately 50%”. The “LDL oxidation: oxidized fraction 27/28 of the chromatogram” value [4] was “oxidized fraction 27/28 disappears” and the inhibition at 10 µM [1] was ~60%.

In the case of `Cn1c(=O)oc2cc3c(cc21)CC(=Cc1cc(C(C)(C)C)c(O)c(C(C)(C)C)c1)C3=O` [Example 40, 2,3-dihydro-3-methyl-2,7-dioxo-6-(3',5'-di-tert-butyl-4'-hydroxybenzylidene)cyclopenta[f]benzoxazole-2,7-dione], the “inhibition of spontaneous peroxidation” value [5] is reported as “approximately 50%”.

In the case of `CC(C)(Sc1cc(C(C)(C)C)c(O)c(C(C)(C)C)c1)Sc1cc(C(C)(C)C)c(O)c(C(C)(C)C)c1` [probucol, reference compound], the “inhibition of spontaneous peroxidation” value [5] is reported as 37%, the “inhibition of induced peroxidation” value [2] is reported as 27% and the inhibition at 10 µM [6] is reported as 48%. The inhibition at 10 µM [1] was 44%.

For vitamin E [reference compound], the “inhibition of spontaneous peroxidation” value [5] was 18% and the “inhibition of induced peroxidation” value [2] was 6%.
